Test results: US11053204B2, “Pyrimidinyloxy benzene derivatives as herbicides” (FMC Corporation, priority 2015, dated 2021)

Tests used:
Type in all cases: in vivo
[1] = tested on: Italian ryegrass (Lolium multiflorum); experiment: Test A preemergence, visual injury rating
In short: (§1)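 Compounds in non-phytotoxic solvent with surfactant applied as soil spray preemergence, or postemergence to plants 2-10 cm at one- to two-leaf stage, in loam/sand. After approximately 10 days in greenhouse, injury rated visually versus untreated controls, 0 (no effect) to 100 (complete control).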

[2] = tested on: barnyardgrass (Echinochloa crus-galli); experiment: Test A preemergence, visual injury rating
In short: as §1

[3] = tested on: giant foxtail (Setaria faberii); experiment: Test A preemergence, visual injury rating
In short: as §1

kochia (Kochia scoparia) [4] = experiment: Test A preemergence, visual injury rating
In short: as §1

[5] = tested on: pigweed (Amaranthus retroflexus); experiment: Test A preemergence, visual injury rating
In short: as §1

[6] = tested on: ragweed (common ragweed, Ambrosia elatior); experiment: Test A preemergence, visual injury rating
In short: as §1

[7] = tested on: Italian ryegrass (Lolium multiflorum); experiment: Test A postemergence, visual injury rating
In short: as §1

[8] = tested on: barnyardgrass (Echinochloa crus-galli); experiment: Test A postemergence, visual injury rating; conditions: 0 to 100 scale, 0 is no effect, 100 is complete control, approximately 10 days
In short: as §1

[9] = tested on: blackgrass (Alopecurus myosuroides); experiment: Test A postemergence, visual injury rating
In short: as §1

corn (Zea mays) = experiment: Test A postemergence, visual injury rating
In short: as §1

[10] = tested on: galium (catchweed bedstraw, Galium aparine); experiment: Test A postemergence, visual injury rating
In short: as §1

[11] = tested on: giant foxtail (Setaria faberii); experiment: Test A postemergence, visual injury rating
In short: as §1

kochia (Kochia scoparia) [12] = experiment: Test A postemergence, visual injury rating
In short: as §1

[13] = tested on: pigweed (Amaranthus retroflexus); experiment: Test A postemergence, visual injury rating
In short: as §1

[14] = tested on: ragweed (common ragweed, Ambrosia elatior); experiment: Test A postemergence, visual injury rating
In short: as §1

[15] = tested on: wheat (Triticum aestivum); experiment: Test A postemergence, visual injury rating
In short: as §1

[16] = tested on: barnyardgrass (Echinochloa crus-galli); experiment: Test B flooded paddy test, plant response rating; conditions: 250 g ai/ha; Flood; scale of 0 to 100 where 0 is no effect and 100 is complete control; 13 to 15 days
In short: (§2)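 Flooded 3 cm over soil; compound into paddy water; depth kept constant. Greenhouse 13–15 d.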

[17] = tested on: ducksalad (Heteranthera limosa); experiment: Test B flooded paddy test, plant response rating; conditions: 250 g ai/ha; Flood; scale of 0 to 100 where 0 is no effect and 100 is complete control; 13 to 15 days
In short: as §2

rice (Oryza sativa) = experiment: Test B flooded paddy test, plant response rating; conditions: 250 g ai/ha; Flood; scale of 0 to 100 where 0 is no effect and 100 is complete control; 13 to 15 days
In short: as §2

[18] = tested on: sedge, umbrella (small-flower umbrella sedge, Cyperus difformis); experiment: Test B flooded paddy test, plant response rating; conditions: 250 g ai/ha; Flood; scale of 0 to 100 where 0 is no effect and 100 is complete control; 13 to 15 days
In short: as §2

[19] = tested on: ragweed (common ragweed, Ambrosia elatior); experiment: Test C preemergence, plant response rating; conditions: Preemergence
In short: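 Greenhouse plants rated visually against untreated controls 13–15 d after treatment, scale 0 = no effect to 100 = complete control. Postemergence sprays went onto potted plants 2–18 cm tall (1–4 leaves); preemergence sprays onto soil freshly sown in loam–sand or silt loam, chemicals formulated in non-phytotoxic solvent with surfactant.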

[20] = 31 g ai/ha, 0 to 100 scale, 0 no effect, 100 complete control
[21] = 125 g ai/ha, 0 to 100 scale (0 no effect, 100 complete control)
[22] = 31 g ai/ha, 0 to 100 scale (0 no effect, 100 complete control)
[23] = 125 g ai/ha, 0 to 100 scale, 0 is no effect, 100 is complete control, approximately 10 days

Structure (SMILES) | Plant response rating, Ryegrass, Italian [1, 20] | Plant response rating, Ryegrass, Italian [1, 21] | Plant response rating, Barnyardgrass [2, 20] | Plant response rating, Barnyardgrass [2, 21] | Plant response rating, Foxtail, Giant [3, 20] | Plant response rating, Foxtail, Giant [3, 21] | Plant response rating, Kochia (kochia (Kochia scoparia) [4]; [20]) | Plant response rating, Kochia (kochia (Kochia scoparia) [4]; [21]) | Plant response rating, Pigweed [5, 20] | Plant response rating, Pigweed [5, 21] | Plant response rating, Ragweed [6, 20] | Plant response rating, Ragweed [6, 21] | Ryegrass, Italian plant response rating [7, 22] | Ryegrass, Italian plant response rating [7, 23] | Barnyardgrass plant response rating ([8]; 31 g ai/ha) | Barnyardgrass plant response rating ([8]; 125 g ai/ha) | Blackgrass plant response rating [9, 22] | Blackgrass plant response rating [9, 23] | Corn plant response rating (corn (Zea mays); [22]) | Corn plant response rating (corn (Zea mays); [23]) | further results
FC(F)(F)CCCCc1c(Br)cccc1Oc1ncc(Cl)cn1 [Compound 138] | 10 | 100 | 70 | 100 | 90 | 100 | 50 | 100 | 80 | 100 | 0 | 0 | 30 | 100 | 90 | 90 | 40 | 90 | 30 | 60 | Galium plant response rating [10, 22]: 70; Galium plant response rating [10, 23]: 100; Foxtail, Giant plant response rating [11, 22]: 90; Foxtail, Giant plant response rating [11, 23]: 90; Kochia plant response rating (kochia (Kochia scoparia) [12]; [22]): 90; Kochia plant response rating (kochia (Kochia scoparia) [12]; [23]): 100; Pigweed plant response rating [13, 22]: 100; Pigweed plant response rating [13, 23]: 100; Ragweed plant response rating [14, 22]: 30; Ragweed plant response rating [14, 23]: 60; Wheat plant response rating [15, 22]: 20; Wheat plant response rating [15, 23]: 40; Plant response rating, Barnyardgrass [16]: 50; Plant response rating, Ducksalad [17]: 100; Plant response rating, Rice (rice (Oryza sativa)): 45; Plant response rating, Sedge, Umbrella [18]: 85; Plant response rating, Ragweed ([19]; 125 g ai/ha, scale of 0 to 100): 10; Plant response rating, Ragweed ([19]; 31 g ai/ha, scale 0 to 100): 0; Plant response rating, Ragweed ([19]; 62 g ai/ha, scale 0 to 100): 0
N#CC(CCCC(F)(F)F)c1ccccc1Oc1ncc(Cl)cn1 (stereo not drawn) [Compound 144] | 20 | 70 | 80 | 100 | 100 | 100 | 90 | 100 | 100 | 100 | 0 | 10 | 30 | 80 | 40 | 90 | 50 | 90 | 20 | 80 | Galium plant response rating [10, 22]: 40; Galium plant response rating [10, 23]: 100; Foxtail, Giant plant response rating [11, 22]: 60; Foxtail, Giant plant response rating [11, 23]: 90; Kochia plant response rating (kochia (Kochia scoparia) [12]; [22]): 90; Kochia plant response rating (kochia (Kochia scoparia) [12]; [23]): 100; Pigweed plant response rating [13, 22]: 90; Pigweed plant response rating [13, 23]: 100; Ragweed plant response rating [14, 22]: 10; Ragweed plant response rating [14, 23]: 10; Wheat plant response rating [15, 22]: 10; Wheat plant response rating [15, 23]: 60; Plant response rating, Barnyardgrass [16]: 70; Plant response rating, Ducksalad [17]: 100; Plant response rating, Rice (rice (Oryza sativa)): 35; Plant response rating, Sedge, Umbrella [18]: 100; Plant response rating, Ragweed ([19]; 125 g ai/ha, scale of 0 to 100): 10; Plant response rating, Ragweed ([19]; 31 g ai/ha, scale 0 to 100): 0; Plant response rating, Ragweed ([19]; 62 g ai/ha, scale 0 to 100): 0
